Data: patent US20250179047A1, “5-[7-(3,4-DIHYDRO-1H-ISOQUINOLINE-2-CARBONYL)-1,2,3,4 TETRAHYDROISOQUINOLIN-6-YL]-1H-PYRROLE-3-CARBOXAMIDE DERIVATIVES, PHARMACEUTICAL COMPOSITIONS CONTAINING THEM AND THEIR USES AS PRO-APOPTOTIC AGENTS” (LES LABORATOIRES SERVIER, priority 2022, published 2025)
pKi: −log10 of the molar value. Read-outs that look alike come from different tables or passages of the source.

Legend:
BCLXL WT = BCLXL WT (Homo sapiens (Human), UniProt Q07817); assay: TR-FRET competitive binding assay, BCLXL WT; details: for pKi: BCLXL WT, Ki determined from IC50, read-out: TR_FRET EKI BclxL; for TR_FRET EKI BCLxL/WT selectivty ratio: ratio Ki BCLxL / Ki BCL2 WT; for TR_FRET EKI BCLxL/WT selectivty: ratio of Ki BCLxL to BCL2 WT
Summary of the method: (§1)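 Ki derived from IC50 (11-point dilution, 520/495 nm emission ratio) for displacing a fluorescein-labelled PUMA peptide (2 or 20 nM). Target was 0.5 nM E. coli-expressed Halo-tagged BCL2 (1-207) or BCLXL (2-196), terbium-labelled on Halo. Incubation 2 h at 23°C in pH 7.5 Hepes with 150 mM NaCl and 5% DMSO.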

KMS-12-PE Bcl-2 WT = assay: In vitro cytotoxicity CellTiter-Glo 48 h, KMS-12-PE Bcl-2 WT; format: cell-based; details: Homo sapiens, KMS-12-PE, C50 = concentration needed to reach 50% of the cellular viability
Summary of the method: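 Transduce KMS-12-PE with Bcl-2 WT or G101V lentivirus, then FACS-sort RFP-positive cells. Add compounds in an 11-point dilution series and incubate 48 h at 37 °C. Measure ATP-based luminescence with CellTiter-Glo and derive C50 (50% viability).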

BCL2 D103Y = BCL2 D103Y (Homo sapiens, UniProt P10415, D103Y); assay: TR-FRET competitive binding assay, BCL2 D103Y; details: Ki determined from IC50, read-out: TR_FRET EKI_Bcl2 D103Y
Summary of the method: as §1

BCL2 G101V [1] = assay: TR-FRET competitive binding assay, BCL2 G101V; parameters: species or system human; details: for TR_FRET EKI G101V/WT selectivty ratio: ratio Ki BCL2 G101V / Ki BCL2 WT; for TR_FRET EKI G101V/WT selectivty: ratio of Ki BCL2 G101V to BCL2 WT
Summary of the method: as §1

BCL2 G101V [2] = target: BCL2 G101V (Homo sapiens, UniProt P10415, G101V); assay: TR-FRET competitive binding assay, BCL2 G101V; details: BCL2 G101V; Ki determined from IC50; read-out: TR_FRET EKI_Bcl2 G101V
Summary of the method: as §1

BCL2 WT = BCL2 WT (Homo sapiens (Human), UniProt P10415); assay: TR-FRET competitive binding assay, BCL2 WT
Summary of the method: as §1

[3] = Ki determined from IC50, read-out: TR_FRET EKI_Bcl2 WT
[4] = Ki determined from IC50, read-out: TR_FRET EKI_Bcl2

Sequence of BCLXL WT (Q07817 other isoform, or with tags, fused parts or gaps): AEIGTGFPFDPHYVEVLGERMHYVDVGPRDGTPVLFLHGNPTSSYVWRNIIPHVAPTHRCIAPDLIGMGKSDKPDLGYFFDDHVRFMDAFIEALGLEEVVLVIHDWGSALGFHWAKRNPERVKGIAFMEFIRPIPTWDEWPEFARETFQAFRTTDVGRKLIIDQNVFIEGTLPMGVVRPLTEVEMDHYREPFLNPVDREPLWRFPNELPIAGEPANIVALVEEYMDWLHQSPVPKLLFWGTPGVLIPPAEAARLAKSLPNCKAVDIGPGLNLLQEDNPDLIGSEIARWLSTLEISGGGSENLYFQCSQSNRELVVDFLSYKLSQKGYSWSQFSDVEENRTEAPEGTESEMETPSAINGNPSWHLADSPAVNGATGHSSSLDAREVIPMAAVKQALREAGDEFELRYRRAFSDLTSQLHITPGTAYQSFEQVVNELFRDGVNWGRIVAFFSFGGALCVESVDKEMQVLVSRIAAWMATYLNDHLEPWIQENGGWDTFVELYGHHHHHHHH

Compound	pKi (BCLXL WT)	TR_FRET EKI BCLxL/WT selectivty ratio (BCLXL WT)	pKi (BCL2 D103Y)	TR_FRET EKI G101V/WT selectivty ratio (BCL2 G101V [1])	pKi (BCL2 G101V [2])	pKi (BCL2 WT; [3])	TR_FRET EKI BCLxL/WT selectivty (BCLXL WT)	TR_FRET EKI G101V/WT selectivty (BCL2 G101V [1])	pKi (BCL2 WT; [4])	IC50 (KMS-12-PE Bcl-2 WT)
Cc1c(N(C(=O)c2cc(-c3cc4c(cc3C(=O)N3Cc5ccccc5C[C@H]3C)CN(C(=O)Cc3ccc(OCCN5CCOCC5)cc3)CC4)n(C)c2C)c2ccccc2)cnn1C(F)F [Example 215, N-[1-(difluoromethyl)-5-methyl-pyrazol-4-yl]-1,2-dimethyl-5-[7-[(3R)-3-methyl-3,4-dihydro-1H-isoquinoline-2-carbonyl]-2-[2-[4-(2-morpholinoethoxy)phenyl]acetyl]-3,4-dihydro-1H-isoquinolin-6-yl]-N-phenyl-pyrrole-3-carboxamide]	7.80	280.7	9.89	80.9	8.34	10.22				0.0147 µM
Cc1c(C(=O)N(c2ccccc2)c2cnn(C)c2)cc(-c2cc3c(cc2C(=O)N2Cc4ccccc4C[C@H]2C)CN(C(=O)Cc2cccc(C4CCN(C)CC4)c2)CC3)n1C [Example 216, 1,2-dimethyl-5-[7-[(3R)-3-methyl-3,4-dihydro-1H-isoquinoline-2-carbonyl]-2-[2-[3-(1-methyl-4-piperidyl)phenyl]acetyl]-3,4-dihydro-1H-isoquinolin-6-yl]-N-(1-methylpyrazol-4-yl)-N-phenyl-pyrrole-3-carboxamide]	8.59	50.1	9.48	125.5	8.19	10.30				0.0449 µM
Cc1c(C(=O)N(c2ccccc2)c2cnn(C)c2)cc(-c2cc3c(cc2C(=O)N2Cc4ccccc4C[C@H]2C)CN(C(=O)Cc2cccc(N4CC5(CN(C)C5)C4)c2)CC3)n1C [Example 217, 1,2-dimethyl-5-[2-[2-[3-(6-methyl-2,6-diazaspiro[3.3]heptan-2-yl)phenyl]acetyl]-7-[(3R)-3-methyl-3,4-dihydro-1H-isoquinoline-2-carbonyl]-3,4-dihydro-1H-isoquinolin-6-yl]-N-(1-methylpyrazol-4-yl)-N-phenyl-pyrrole-3-carboxamide]	9.22	24.9	10.05	88.7	8.70	10.70				0.0453 µM
Cc1c(C(=O)N(c2ccccc2)c2cccc(C#N)c2)cc(-c2cc3c(cc2C(=O)N2Cc4ccccc4C[C@H]2C)CN(C(=O)Cc2ccc(OCCN4CCOCC4)cc2)CC3)n1C [Example 218, N-(3-cyanophenyl)-1,2-dimethyl-5-[7-[(3R)-3-methyl-3,4-dihydro-1H-isoquinoline-2-carbonyl]-2-[2-[4-(2-morpholinoethoxy)phenyl]acetyl]-3,4-dihydro-1H-isoquinolin-6-yl]-N-phenyl-pyrrole-3-carboxamide]	7.86	418.1	10.10	45.3	8.82	10.52				0.0142 µM
COc1ncc(N(C(=O)c2cc(-c3cc4c(cc3C(=O)N3Cc5ccccc5C[C@H]3C)CN(C(=O)Cc3ccc(OCCN(C)C)cc3F)CC4)n(C)c2C)c2ccccc2)cc1F [Example 219, 5-[2-[2-[4-[2-(dimethylamino)ethoxy]-2-fluoro-phenyl]acetyl]-7-[(3R)-3-methyl-3,4-dihydro-1H-isoquinoline-2-carbonyl]-3,4-dihydro-1H-isoquinolin-6-yl]-N-(5-fluoro-6-methoxy-3-pyridyl)-1,2-dimethyl-N-phenyl-pyrrole-3-carboxamide]	8.54	57.8	9.89	89.8	8.34	10.30				0.131 µM
Cc1c(C(=O)N(c2ccccc2)c2ccnn2C)cc(-c2cc3c(cc2C(=O)N2Cc4ccccc4C[C@H]2C)CN(C(=O)Cc2ccc(OCCN4CCOCC4)cc2)CC3)n1C [Example 220, 1,2-dimethyl-5-[7-[(3R)-3-methyl-3,4-dihydro-1H-isoquinoline-2-carbonyl]-2-[2-[4-(2-morpholinoethoxy)phenyl]acetyl]-3,4-dihydro-1H-isoquinolin-6-yl]-N-(2-methylpyrazol-3-yl)-N-phenyl-pyrrole-3-carboxamide]	7.37	325.6	9.43	109.9	7.84	9.89				0.0907 µM
Cc1nn(C)cc1N(C(=O)c1cc(-c2cc3c(cc2C(=O)N2Cc4ccccc4C[C@H]2C)CN(C(=O)Cc2ccc(OCCN(C)C)cc2)CC3)n(C)c1C)c1ccccc1 [Example 221, 5-[2-[2-[4-[2-(dimethylamino)ethoxy]phenyl]acetyl]-7-[(3R)-3-methyl-3,4-dihydro-1H-isoquinoline-2-carbonyl]-3,4-dihydro-1H-isoquinolin-6-yl]-N-(1,3-dimethylpyrazol-4-yl)-1,2-dimethyl-N-phenyl-pyrrole-3-carboxamide]	7.55	118.0	9.28	79.5	7.72	9.62				0.121 µM

Now from value to compound, other results behind:

pKi (BCLXL WT)	TR_FRET EKI BCLxL/WT selectivty ratio (BCLXL WT)	pKi (BCL2 D103Y)	TR_FRET EKI G101V/WT selectivty ratio (BCL2 G101V [1])	pKi (BCL2 G101V [2])	pKi (BCL2 WT; [3])	TR_FRET EKI BCLxL/WT selectivty (BCLXL WT)	TR_FRET EKI G101V/WT selectivty (BCL2 G101V [1])	pKi (BCL2 WT; [4])	Compound	IC50 (KMS-12-PE Bcl-2 WT)
7.90	138.9	9.72	69.6	8.20	10.05				Cc1nn(C)cc1N(C(=O)c1cc(-c2cc3c(cc2C(=O)N2Cc4ccccc4C[C@H]2C)CN(C(=O)Cc2ccc(OCCN(C)C)cc2F)CC3)n(C)c1C)c1ccccc1 [Example 222, 5-[2-[2-[4-[2-(dimethylamino)ethoxy]-2-fluoro-phenyl]acetyl]-7-[(3R)-3-methyl-3,4-dihydro-1H-isoquinoline-2-carbonyl]-3,4-dihydro-1H-isoquinolin-6-yl]-N-(1,3-dimethylpyrazol-4-yl)-1,2-dimethyl-N-phenyl-pyrrole-3-carboxamide]	0.055 µM
7.38		9.12		8.08		160.8	32.2	9.59	Cc1c(C(=O)N(c2ccccc2)c2cc(F)cc(C#N)c2)cc(-c2cc3c(cc2C(=O)N2Cc4ccccc4C[C@H]2C)CN(C(=O)Cc2ccc(OCCN4CCOCC4)cc2)CC3)n1C [Example 226, N-(3-cyano-5-fluoro-phenyl)-1,2-dimethyl-5-[7-[(3R)-3-methyl-3,4-dihydro-1H-isoquinoline-2-carbonyl]-2-[2-[4-(2-morpholinoethoxy)phenyl]acetyl]-3,4-dihydro-1H-isoquinolin-6-yl]-N-phenyl-pyrrole-3-carboxamide]	0.0365 µM
7.43		9.48		7.97		219.1	63.7	9.77	Cc1c(C(=O)N(c2ccccc2)c2cc(F)cc(C#N)c2)cc(-c2cc3c(cc2C(=O)N2Cc4ccccc4C[C@H]2C)CN(C(=O)Cc2ccc(OCCN4CCOCC4)cc2F)CC3)n1C [Example 227, N-(3-cyano-5-fluoro-phenyl)-5-[2-[2-[2-fluoro-4-(2-morpholinoethoxy)phenyl]acetyl]-7-[(3R)-3-methyl-3,4-dihydro-1H-isoquinoline-2-carbonyl]-3,4-dihydro-1H-isoquinolin-6-yl]-1,2-dimethyl-N-phenyl-pyrrole-3-carboxamide]	0.0254 µM
8.56		10.10		9.49		70.3	8.2	10.41	Cc1c(C(=O)N(c2ccc(O)cc2)c2cnn(C)c2)cc(-c2cc3c(cc2C(=O)N2Cc4ccccc4C[C@H]2C)CN(C(=O)Cc2ccc(OCCN4CCOCC4)cc2F)CC3)n1C [Example 233]	0.00694 µM
8.43		9.80		9.12		42.8	8.9	10.07	Cc1c(N(C(=O)c2cc(-c3cc4c(cc3C(=O)N3Cc5ccccc5C[C@H]3C)CN(C(=O)Cc3ccc(OCCN5CCOCC5)cc3F)CC4)n(C)c2C)c2ccccc2)cc(C#N)n1C [Example 234]	0.00221 µM
8.77		10.24		9.28		53.1	16.3	10.49	Cc1c(C(=O)N(c2ccccc2)c2cnn(C)c2)cc(-c2cc3c(cc2C(=O)N2Cc4ccccc4C[C@H]2C)CN(C(=O)Cc2ccc(OCCC4CCN(C)CC4)cc2)CC3)n1C [Example 237]	0.007 µM
8.55		9.89		8.97		43.8	16.7	10.19	Cc1c(C(=O)N(c2ccccc2)c2cnn(C(F)F)c2)cc(-c2cc3c(cc2C(=O)N2Cc4ccccc4C[C@H]2C)CN(C(=O)Cc2ccc(OCCC4CCN(C)CC4)cc2)CC3)n1C [Example 238]	0.00907 µM
